This note sets out measurements from patent US20220380375A1, “SUBSTITUTED AROMATIC FUSED RING DERIVATIVE AND COMPOSITION COMPRISING SAME, AND USE THEREOF” (Shenzhen TargetRx, Inc., priority 2019, published 2022).

The target in data set [1] is T1, Ba/F3 FLT3-ITD^F691L cells (Homo sapiens, UniProt P36888, F691L, cells depend on it, form not given).
T1 construct: Ba/F3 FLT3-ITD^F691L IC50 (nM); other: CellTiter-Glo, 72 hrs
T1 sequence (P36888 1-993 F691L): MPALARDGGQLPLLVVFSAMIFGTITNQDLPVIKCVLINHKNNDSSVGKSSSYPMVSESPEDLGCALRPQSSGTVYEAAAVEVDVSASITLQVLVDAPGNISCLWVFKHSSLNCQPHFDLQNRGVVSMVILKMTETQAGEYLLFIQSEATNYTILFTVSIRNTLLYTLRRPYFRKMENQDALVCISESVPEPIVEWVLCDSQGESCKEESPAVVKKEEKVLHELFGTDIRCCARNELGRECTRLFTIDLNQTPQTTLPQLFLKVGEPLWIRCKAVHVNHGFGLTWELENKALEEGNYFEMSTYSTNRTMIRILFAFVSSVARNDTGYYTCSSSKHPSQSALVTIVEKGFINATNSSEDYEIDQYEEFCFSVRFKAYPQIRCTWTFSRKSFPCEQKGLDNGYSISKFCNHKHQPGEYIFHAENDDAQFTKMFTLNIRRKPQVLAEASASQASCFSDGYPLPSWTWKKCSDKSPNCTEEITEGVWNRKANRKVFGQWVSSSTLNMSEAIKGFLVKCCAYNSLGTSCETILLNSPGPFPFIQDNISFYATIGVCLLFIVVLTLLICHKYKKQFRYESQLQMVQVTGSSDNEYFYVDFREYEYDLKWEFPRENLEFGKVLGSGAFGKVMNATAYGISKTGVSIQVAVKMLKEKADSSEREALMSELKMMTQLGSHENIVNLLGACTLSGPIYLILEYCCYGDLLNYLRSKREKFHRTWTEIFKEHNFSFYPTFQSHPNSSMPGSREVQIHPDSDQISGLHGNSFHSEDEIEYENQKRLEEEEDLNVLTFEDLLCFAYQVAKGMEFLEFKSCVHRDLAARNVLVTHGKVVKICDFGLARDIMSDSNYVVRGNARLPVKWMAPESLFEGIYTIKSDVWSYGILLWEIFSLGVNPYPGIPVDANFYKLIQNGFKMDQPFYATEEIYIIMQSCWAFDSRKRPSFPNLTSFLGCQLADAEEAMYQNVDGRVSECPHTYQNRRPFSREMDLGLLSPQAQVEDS
Put plainly: Cytotoxicity assay (CellTiter-Glo), Ba/F3 FLT3-ITD F691L. The note with it: CellTiter-Glo, 72 hrs; read-out: Ba/F3 FLT3-ITD^F691L IC50. The format is cell-based. As for the experimental part:
(§1) Inhibitory effects of example compounds on the activity of Ba/F3 parental generation, Ba/F3 KIF5B-RET, Ba/F3 KIF5B-RET^V804M, Ba/F3 KIF5B-RET^V804L, Ba/F3 KIF5B-RET^G810R, Ba/F3 FLT3-ITD, Ba/F3 FLT3-ITD^D835Y, Ba/F3 FLT3-ITD^F691L cells were determined.
(§2) Materials and reagents: fetal bovine serum FBS (GIBCO, Cat #10099141), CellTiter-Glo® Luminescent Cell Viability Assay kit (Promega, Cat #G7572), 96-well black-wall clear flat-bottom plate (Corning®, Cat #3603).
(§3) 1. Cells in the logarithmic growth phase were harvested and counted with a […]. Cell viability was detected by a trypan blue exclusion method, ensuring that cell viability was 90% or more; 2. Cell concentration was adjusted to about 3000 cells/well; 90 μl of cell suspension was added to each well of the 96-well plate; 3. The cells in the 96-well plate were incubated overnight under the condition of 37° C., 5% CO2, and 95% humidity.
(§4) 1. A series of compound solutions were formulated by 3.16-fold serial dilution starting from a concentration of 10 μM, resulting in 9 concentrations. 10 μL of the compound solutions were added in each well of the 96-well plate seeded with cells in triplicate for each compound concentration; 2. The cells in the 96-well plate added with compounds were further incubated under the condition of 37° C., 5% CO2, and 95% humidity for 72 hrs, and then CTG analysis was carried out.
(§5) 1. CTG reagent was thawed, and the cell plate was equilibrated at room temperature for 30 minutes; 2. An equal volume […] of CTG solution was added to each well; 3. The cell plate was shaken on an orbital shaker for 5 minutes to lyse the cells; 4. The cell plate was placed at RT for 20 minutes to stabilize the luminescence signal; 5. Luminescence value was read.
(§6) Data were Analyzed by GraphPad Prism 5.0 Software, and Fitted by Nonlinear S-Curve Regression to obtain a dose-response curve, from which IC50 values were calculated.
(§7) Cell survival rate (%)=(luminescence value of drug to be tested−luminescence value of culture medium control)/(luminescence value of cell control−luminescence value of culture medium control)×100%.

Data set [2] deals with Ba/F3 FLT3-ITD^F691L cells. The data set is described as above. The format is cell-based. The note with it: ratio of Ba/F3 parental IC50 to Ba/F3 FLT3-ITD^F691L IC50. As for the experimental part:
as §1, §2, §3, §4, §5, §6, §7

Data set [3] is described as follows: Safety assay (body weight, tolerability) in Ba/F3 KIF5B-RET cell line tumor model. It counts as in vivo. The conditions noted are these: for Number of animals at the beginning/end of assay: 10 mg/kg p.o. QD × 14; for Average weight g (x ± S), Day 0 of administration: 10 mg/kg p.o. QD × 14, day 0 (baseline); for Average weight g (x ± S), Day 14 of administration / Weight change rate (%), Day 14 of administration: 10 mg/kg p.o. QD × 14, day 14; for tolerability (weight loss, drug withdrawal, drug toxicity): during the treatment. As for the experimental part: (§8) Assay methods: 1) Ba/F3 KIF5B-RET and Ba/F3 KIF5B-RET^G810R cells were respectively resuscitated and Cultured in vitro, and 3×10^7 cells of each type were obtained. 2) 60 female NPSG mice aged 6-8 weeks were adaptively bred for 1 week and then weighed. 4) After inoculation, tumor volume and body weight were measured once a week. When average tumor volume reached about […], mice inoculated with each type of Ba/F3 cells were randomly divided into 7 groups according to tumor volume and body weight, with 3 mice in each group. The administration was started immediately after grouping. The date of start of administration was regarded as day 0. Informations on administration and grouping were shown in Tables 5 and 6.5) After the start of the administration, the body weight and tumor volume of mice were measured twice a week. 6) After the end of the administration, the assay was over.
(§9) Assay observation and data collection: After tumor inoculation, morbidity and death of animals were observed every working day. Daily observation included tumor growth and effects of drugs on laboratory animals, such as changes in activity, changes in feeding and drinking, weight loss, changes in appearance of hair and eye, death and other clinical symptoms. Formula for calculating tumor volume is: tumor volume (mm^3)=½×(a×b^2) (wherein a represents the long diameter and b represents the short diameter)

The nature of data set [4]: Safety assay (body weight, tolerability) in Ba/F3 KIF5B-RET^G810R cell line tumor model. The format is in vivo. The note with it: for Number of animals at the beginning/end of assay: 25 mg/kg p.o. QD × 13; for Average weight g (x ± S), Day 0 of administration: 25 mg/kg p.o. QD × 13, day 0 (baseline); for Average weight g (x ± S), Day 13 of administration / Weight change rate (%), Day 13 of administration: 25 mg/kg p.o. QD × 13, day 13; for tolerability (weight loss, drug withdrawal, drug toxicity): during the treatment. As for the experimental part:
as §8, §9

Take `CC(C)n1nc(-c2ccc(NC(=O)Nc3cc(C(F)(F)F)ccc3F)cc2)c2c(N)ncnc21` [AD80, reference compound]: in data set [1], the GI50 turned out to be 11.8 nM. Moreover, the “Ba/F3 FLT3-ITD^F691L Selectivity on parental generation” value (shortened to “Ba/F3 FLT3-ITD^F691L Selectivity”) in data set [2] stood at 68.8. Also, in data set [3], the “Number of animals at the beginning/end of assay” value is 3/3; the “Average weight g (x ± S), Day 0 of administration” value turned out to be 20.1 ± 0.81 g; the “Average weight g (x ± S), Day 14 of administration” value is listed as 22.6 ± 0.87 g; the “Weight change rate (%), Day 14 of administration” value was determined as 12.7%. In data set [3], the “tolerability (weight loss, drug withdrawal, drug toxicity)” value was “well tolerated”. Moreover, in data set [4], the “Number of animals at the beginning/end of assay” value was 3/3; the “Average weight g (x ± S), Day 0 of administration” value turned out to be 19.9 ± 0.44 g; the “Average weight g (x ± S), Day 13 of administration” value is given as 20.7 ± 1.53 g; the “Weight change rate (%), Day 13 of administration” value was determined as 4.14%. In addition, the “tolerability (weight loss, drug withdrawal, drug toxicity)” value in data set [4] is listed as “well tolerated”.

Take `CC(C)n1nc(-c2ccc(CC(=O)Nc3cc(C(C)(C)C(F)(F)F)on3)cc2)c2c(N)ncnc21` [Compound T-1, 2-(4-(4-amino-1-isopropyl-1H-pyrazolo[3,4-d]pyrimidin-3-yl)phenyl)-N-(5-(1,1,1-trifluoro-2-methylprop-2-yl)isoxazol-3-yl)acetamide]: the GI50 in data set [1] turned out to be 7.7 nM. Besides, the “Ba/F3 FLT3-ITD^F691L Selectivity” value in data set [2] is on record as 210.4. Moreover, in data set [3], the “Number of animals at the beginning/end of assay” value is given as 3/3; the “Average weight g (x ± S), Day 0 of administration” value was 20.9 ± 1.06 g; the “Average weight g (x ± S), Day 14 of administration” value is 21.6 ± 1.05 g; the “Weight change rate (%), Day 14 of administration” value was found to be 3.4%. The “tolerability (weight loss, drug withdrawal, drug toxicity)” value in data set [3] is given as “well tolerated”. In addition, in data set [4], the “Number of animals at the beginning/end of assay” value was 3/3; the “Average weight g (x ± S), Day 0 of administration” value turned out to be 20.3 ± 1.32 g; the “Average weight g (x ± S), Day 13 of administration” value is given as 21.3 ± 1.19 g; the “Weight change rate (%), Day 13 of administration” value turned out to be 4.90%. In addition, the “tolerability (weight loss, drug withdrawal, drug toxicity)” value in data set [4] was “well tolerated”.

Take `CC(C)c1nc(-c2ccc(CC(=O)Nc3cc(C(C)(C)C(F)(F)F)on3)cc2)c2c(N)nccn12` [Compound T-4, 2-(4-(8-amino-3-isopropylimidazo[1,5-a]pyrazin-1-yl)phenyl)-N-(5-(1,1,1-trifluoro-2-methylprop-2-yl)isoxazol-3-yl)acetamide]: the GI50 in data set [1] came out at 16.6 nM. For the same molecule, the “Ba/F3 FLT3-ITD^F691L Selectivity” value in data set [2] is 42.2.

As to `CC(C)c1cc(-c2ccc(CC(=O)Nc3cc(C(C)(C)C(F)(F)F)on3)cc2)c2c(N)ncnn12` [Compound T-5, 2-(4-(4-amino-7-isopropylpyrrolo[2,1-f][1,2,4]triazin-5-yl)phenyl)-N-(5-(1,1,1-trifluoro-2-methylprop-2-yl)isoxazol-3-yl)acetamide], the GI50 in data set [1] was determined as 11.4 nM. In addition, the “Ba/F3 FLT3-ITD^F691L Selectivity” value in data set [2] stood at 419.6.

As to `CC(C)n1nc(-c2ccc(CC(=O)Nc3cc(C(C)(C)C(F)(F)F)on3)cn2)c2c(N)ncnc21` [Compound T-7, 2-(6-(4-amino-1-isopropyl-1H-pyrazolo[3,4-d]pyrimidin-3-yl)pyridin-3-yl)-N-(5-(1,1,1-trifluoro-2-methylprop-2-yl)isoxazol-3-yl)acetamide], the GI50 in data set [1] was determined as 3.22 nM. Moreover, the “Ba/F3 FLT3-ITD^F691L Selectivity” value in data set [2] worked out at 101.9.

For `CC(C)n1nc(-c2ccc(CC(=O)Nc3cc(C(C)(C)C(F)(F)F)no3)cn2)c2c(N)ncnc21` [Compound T-9, 2-(6-(4-amino-1-isopropyl-1H-pyrazolo[3,4-d]pyrimidin-3-yl)pyridin-3-yl)-N-(3-(1,1,1-trifluoro-2-methylprop-2-yl)isoxazol-5-yl)acetamide], in data set [1], the GI50 worked out at 28.1 nM. The “Ba/F3 FLT3-ITD^F691L Selectivity” value in data set [2] amounted to 146.5.

In the case of `CC(C)c1nc(-c2ccc(CC(=O)Nc3cc(C(C)(C)C(F)(F)F)on3)cc2)c2c(N)ncnn12` [Compound T-10, 2-(4-(4-amino-7-isopropylimidazo[5,1-f][1,2,4]triazin-5-yl)phenyl)-N-(5-(1,1,1-trifluoro-2-methylprop-2-yl)isoxazol-3-yl)acetamide], the GI50 in data set [1] is 39.1 nM. Moreover, in data set [2], the “Ba/F3 FLT3-ITD^F691L Selectivity” value came out at 57.3.

For `[2H]C([2H])([2H])C(n1nc(-c2ccc(CC(=O)Nc3cc(C(C)(C)C(F)(F)F)no3)cc2)c2c(N)ncnc21)C([2H])([2H])[2H]` [Compound T-11, 2-(4-(4-amino-1-(propan-2-yl-1,1,1,3,3,3-d6)-1H-pyrazolo[3,4-d]pyrimidin-3-yl)phenyl)-N-(3-(1,1,1-trifluoro-2-methylpropan-2-yl)isoxazol-5-yl)acetamide], the GI50 in data set [1] stood at 13.6 nM. In addition, the “Ba/F3 FLT3-ITD^F691L Selectivity” value in data set [2] is reported as 404.9.

For `[2H]C([2H])([2H])C(n1cc(-c2ccc(CC(=O)Nc3cc(C(C)(C)C(F)(F)F)on3)cc2)c2c(N)ncnc21)C([2H])([2H])[2H]` [Compound T-12, 2-(4-(4-amino-7-(propen-2-yl-1,1,1,3,3,d6)-7H-pyrrolo[2,3-d]pyrimidin-5-yl)phenyl)-N-(5-(1,1,1-trifluo-2-methylpropan-2-yl)isoxazol-3-yl)acetamide], the GI50 in data set [1] turned out to be 3.7 nM. Also, the “Ba/F3 FLT3-ITD^F691L Selectivity” value in data set [2] came to 289.7.
